The source of these data is patent US9790169B2, “IDO inhibitors” (BRISTOL-MYERS SQUIBB COMPANY, priority 2015, dated 2017).

This assay deals with human IDO1 (Homo sapiens, UniProt P14902). In words: Assessment of human IDO-1 inhibitory activity in Hela cells (Interferon-gamma stimulated HeLa cells, Ehrlich reagent, absorbance 490 nm). Further details: endogenous in cells; host or cells: HeLa cells stimulated with interferon-gamma. The format is cell-based. The conditions noted are these: Hela Human IDO-1 cellular assay. In short, it runs like this:
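IDO activity induced by 18 h IFN-γ (human 10 ng/ml or murine 5 ng/ml, final) after 1 h compound pre-treatment of HeLa cells at 37 °C. Supernatant kynurenine detected via Ehrlich reagent absorbance at 490 nm following 3% TCA at 50 °C; IC50 set against no-IFN-γ and untreated-stimulated controls.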

Some results are limits rather than exact numbers.

human IDO1, sequence (P14902 whole entry): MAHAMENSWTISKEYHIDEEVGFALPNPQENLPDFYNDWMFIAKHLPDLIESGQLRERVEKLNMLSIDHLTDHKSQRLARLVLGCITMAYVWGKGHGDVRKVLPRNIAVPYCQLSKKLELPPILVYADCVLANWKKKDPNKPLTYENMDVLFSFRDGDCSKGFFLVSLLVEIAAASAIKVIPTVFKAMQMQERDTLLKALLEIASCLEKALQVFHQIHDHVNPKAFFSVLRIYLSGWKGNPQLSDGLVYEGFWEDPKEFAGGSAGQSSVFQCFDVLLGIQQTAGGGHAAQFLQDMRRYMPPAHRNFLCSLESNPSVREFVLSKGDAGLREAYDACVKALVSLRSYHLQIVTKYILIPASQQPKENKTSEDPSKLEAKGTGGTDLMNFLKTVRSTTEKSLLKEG

Usually IC50 stands for the point on the concentration scale where inhibition reaches its midpoint. A higher IC50 goes with weaker potency. `CCOc1ncc(Nc2cc(C(CC)CC(=O)O)ccc2N2CCN(C(=O)OC)CC2)cn1` (single isomer, unassigned) [Example 669, 3-(3-((2-Ethoxypyrimidin-5-yl)amino)-4-(4-(methoxycarbonyl)piperazin-1-yl)phenyl)pentanoic acid] registered an IC50 greater than 50 nM.

As for `CCC(CC(=O)O)c1ccc(N2CCNCC2)c(Nc2ccc(C#N)cc2)c1` (single isomer, unassigned) [Example 671 Enantiomer 1, 3-(3-((4-Cyanophenyl)amino)-4-(piperazin-1-yl)phenyl)pentanoic acid], the IC50 is greater than 50 nM.

For `CCOc1ncc(Nc2cc(C(CC)CC(=O)O)ccc2N2CCNCC2)cn1` (single isomer, unassigned) [Example 672, 3-(3-((2-Ethoxypyrimidin-5-yl)amino)-4-(piperazin-1-yl)phenyl)pentanoic acid], the IC50 is greater than 50 nM.

The compound `CCC(CC(=O)O)c1ccc(N2CCN(C(=O)OC(C)(C)C)CC2)c(Nc2ccc(C#N)cc2)c1` (single isomer, unassigned) [Example 674 Enantiomer 1, 3-(4-(4-(tert-Butoxycarbonyl)piperazin-1-yl)-3-((4-cyanophenyl)amino)phenyl)pentanoic acid] came in with a half-maximal inhibitory concentration (IC50) of less than 50 nM.

Consider `CCC(CC(=O)O)c1ccc(N2CCN(C(=O)OC(C)(C)C)CC2)c(Nc2ccc(C#N)cc2)c1` (single isomer, unassigned) [Example 674 Enantiomer 2, 3-(4-(4-(tert-Butoxycarbonyl)piperazin-1-yl)-3-((4-cyanophenyl)amino)phenyl)pentanoic acid], for which the IC50 was greater than 50 nM.

`CCOc1ncc(Nc2cc(C(CC)CC(=O)O)ccc2N2CCN(C(=O)OC(C)(C)C)CC2)cn1` (single isomer, unassigned) [Example 675, 3-(4-(4-(tert-Butoxycarbonyl)piperazin-1-yl)-3-((2-ethoxypyrimidin-5-yl)amino)phenyl)pentanoic acid] displayed an IC50 greater than 50 nM.

For `COCC(CC(=O)O)c1ccc(N(CC2CC2)C2CCOCC2)c(Nc2ccc(C(N)=O)nc2)c1` (single isomer, unassigned) [Example 693, 3-(3-((6-carbamoylpyridin-3-yl)amino)-4-((cyclopropylmethyl) (tetrahydro-2H-pyran-4-yl)amino)phenyl)-4-methoxybutanoic acid], the IC50 was greater than 50 nM.

Turning to `CC(CC(=O)O)c1ccc(N2C[C@@H](C)O[C@@H](C)C2)c(NC(=O)Nc2ccc(Cl)cc2F)c1` (single isomer, unassigned) [Example 749 Enantiomer 1], the IC50 was greater than 50 nM.

Consider `CC(CC(=O)O)c1ccc(N2C[C@@H](C)O[C@@H](C)C2)c(NC(=O)Nc2ccc(C#N)cc2)c1` (single isomer, unassigned) [Example 750], for which the half-maximal inhibitory concentration (IC50) is greater than 50 nM.

`Cc1ccc(NC(=O)Nc2cc(C(C)CC(=O)O)ccc2N2C[C@@H](C)O[C@@H](C)C2)cc1` (single isomer, unassigned) [Example 751] displayed an IC50 greater than 50 nM.

With `CCN(c1cc(F)c([C@@H](COC)CC(=O)O)cc1Nc1ccc(C#N)cc1)C1CCOCC1` (single isomer, unassigned) [Example 843, 3-(5-((4-Cyanophenyl)amino)-4-(ethyl(tetrahydro-2H-pyran-4-yl)amino)-2-fluorophenyl)-4-methoxybutanoic acid], the IC50 was less than 5 nM.

Take `CCN(c1cc(F)c(C(COC)CC(=O)O)cc1Nc1ccc(C#N)c(F)c1)C1CCOCC1` (single isomer, unassigned) [Example 846, 3-(5-((4-cyano-3-fluorophenyl)amino)-4-(ethyl (tetrahydro-2H-pyran-4-yl)amino)-2-fluorophenyl)-4-methoxybutanoic acid]: the IC50 is less than 5 nM.

Turning to `CCN(c1cc(F)c(C(COC)CC(=O)O)cc1Nc1ccc(C#N)cc1F)C1CCOCC1` (single isomer, unassigned) [Example 847, 3-(5-((4-cyano-2-fluorophenyl)amino)-4-(ethyl (tetrahydro-2H-pyran-4-yl)amino)-2-fluorophenyl)-4-methoxybutanoic acid], the IC50 was less than 5 nM.

Turning to `CCN(c1cc(F)c([C@@H](COC)CC(=O)O)cc1NC(=O)Nc1ccc(Cl)cc1F)C1CCOCC1` (single isomer, unassigned) [Example 848, 3-(5-(3-(4-Chloro-2-fluorophenyl)ureido)-4-(ethyl(tetrahydro-2H-pyran-4-yl)amino)-2-fluorophenyl)-4-methoxybutanoic acid], the IC50 was less than 5 nM.

For the compound `CCN(c1cc(F)c([C@@H](COC)CC(=O)O)cc1NC(=O)Nc1ccc(C#N)cc1)C1CCOCC1` (single isomer, unassigned) [Example 849, 3-(5-(3-(4-Cyanophenyl)ureido)-4-(ethyl(tetrahydro-2H-pyran-4-yl)amino)-2-fluorophenyl)-4-methoxybutanoic acid], the IC50 is greater than 50 nM.

As for `CCN(c1cc(F)c([C@H](COC)CC(=O)O)cc1Nc1ccc(C#N)cc1)C1CCOCC1` (single isomer, unassigned) [Example 850, 3-(5-((4-Cyanophenyl)amino)-4-(ethyl(tetrahydro-2H-pyran-4-yl)amino)-2-fluorophenyl)-4-methoxybutanoic acid], the IC50 is less than 5 nM.

`CCN(c1cc(F)c(C(COC)CC(=O)O)cc1NC(=O)Nc1ccc(Cl)cc1F)C1CCOCC1` (single isomer, unassigned) [Example 855, 3-(5-(3-(4-Chloro-2-fluorophenyl)ureido)-4-(ethyl(tetrahydro-2H-pyran-4-yl)amino)-2-fluorophenyl)-4-methoxybutanoic acid] came in with an IC50 of less than 50 nM.

Turning to `CCC(CC(=O)O)c1cc(Nc2ccc(Cl)cc2)c(N(CC)C2CCOCC2)cc1F` (single isomer, unassigned) [Example 856, 3-(5-((4-Chlorophenyl)amino)-4-(ethyl(tetrahydro-2H-pyran-4-yl)amino)-2-fluorophenyl)pentanoic acid], the IC50 is less than 5 nM.

`CCC(CC(=O)O)c1cc(Nc2ccc(C#N)cn2)c(N(CC)C2CCOCC2)cc1F` (single isomer, unassigned) [Example 857, 3-(5-((5-cyanopyridin-2-yl)amino)-4-(ethyl(tetra-hydro-2H-pyran-4-yl)amino)-2-fluorophenyl) pentanoic acid] registered an IC50 of less than 50 nM.

For the compound `CCC(CC(=O)O)c1cc(Nc2cnc(OCC3CC3)nc2)c(N(CC)C2CCOCC2)cc1F` (single isomer, unassigned) [Example 858, 3-(5-((2-(cyclopropyl-methoxy)pyrimidin-5-yl)amino)-4-(ethyl(tetra-hydro-2H-pyran-4-yl)amino)-2-fluorophenyl) pentanoic acid], the IC50 is less than 5 nM.

Consider `CCC(CC(=O)O)c1cc(Nc2cnc(OC)nc2)c(N(CC)C2CCOCC2)cc1F` (single isomer, unassigned) [Example 859, 3-(4-(ethyl (tetrahydro-2H-pyran-4-yl)amino)-2-fluoro-5-((2-methoxy-pyrimidin-5-yl)amino)phenyl) pentanoic acid], for which the IC50 is less than 5 nM.

`CCOc1ncc(Nc2cc(C(CC)CC(=O)O)c(F)cc2N(CC)C2CCOCC2)cn1` (single isomer, unassigned) [Example 860, 3-(5-((2-ethoxy-pyrimidin-5-yl)amino)-4-(ethyl(tetra-hydro-2H-pyran-4-yl)amino)-2-fluorophenyl) pentanoic acid] registered an IC50 of less than 5 nM.

As for `CCC(CC(=O)O)c1cc(Nc2ccc(C#N)cn2)c(N(CC)C2CCOCC2)cc1F` (single isomer, unassigned) [Example 862, 3-(5-((5-cyanopyridin-2-yl)amino)-4-(ethyl (tetrahydro-2H-pyran-4-yl)amino)-2-fluorophenyl) pentanoic acid], the IC50 was less than 5 nM.

In the case of `CCC(CC(=O)O)c1ccc(N(C)C2CCOCC2)c(Nc2ccc(C#N)cc2)c1` (single isomer, unassigned) [Example 866, 3-(3-((4-Cyanophenyl)amino)-4-(methyl(tetrahydro-2H-pyran-4-yl)amino)phenyl)pentanoic acid], the IC50 was less than 50 nM.

In the case of `CCC(CC(=O)O)c1ccc(N(C)C2CCOCC2)c(Nc2ccc(Cl)cc2)c1` (single isomer, unassigned) [Example 867, 3-(3-((4-Chlorophenyl)amino)-4-(methyl(tetrahydro-2H-pyran-4-yl)amino)phenyl)pentanoic acid], the IC50 is less than 5 nM.

Compound `CCC(CC(=O)O)c1ccc(N(C)C2CCOCC2)c(Nc2cnc(OC)nc2)c1` (single isomer, unassigned) [Example 868, 3-(3-((2-methoxy-pyrimidin-5-yl)amino)-4-(methyl (tetrahydro-2H-pyran-4-yl)amino)phenyl) pentanoic acid] gave an IC50 of less than 50 nM.

In turn, `CCOc1ncc(Nc2cc(C(CC)CC(=O)O)ccc2N(C)C2CCOCC2)cn1` (single isomer, unassigned) [Example 869, 3-(3-((2-ethoxy-pyrimidin-5-yl)amino)-4-(methyl (tetrahydro-2H-pyran-4-yl)amino)phenyl) pentanoic acid] had an IC50 of less than 50 nM.

Consider `CCC(CC(=O)O)c1ccc(N(C)C2CCOCC2)c(Nc2ccc(C#N)cc2)c1` (single isomer, unassigned) [Example 870, 3-(3-((4-Cyanophenyl)amino)-4-(methyl(tetrahydro-2H-pyran-4-yl)amino)phenyl)pentanoic acid], for which the IC50 is less than 5 nM.

The compound `CCC(CC(=O)O)c1ccc(N(C)C2CCOCC2)c(Nc2cnc(OC)nc2)c1` (single isomer, unassigned) [Example 871, 3-(3-((2-methoxy-pyrimidin-5-yl)amino)-4-(methyl(tetra-hydro-2H-pyran-4-yl)amino)phenyl) pentanoic acid] gave an IC50 greater than 50 nM.

In turn, `COCC(CC(=O)O)c1ccc(N(C)C2CCOCC2)c(Nc2ccc(C#N)cc2)c1` (single isomer, unassigned) [Example 873, 3-(3-((4-Cyanophenyl)amino)-4-(methyl(tetrahydro-2H-pyran-4-yl)amino)phenyl)-4-methoxybutanoic acid] had an IC50 of less than 50 nM.
